Data: PubChem BioAssay (NCI)
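Five compound concentrations were applied to cells in 96-well plates for 48 hours; endpoints were derived by simple linear interpolation of the resulting dose-response curve. TGI denotes the concentration required for complete inhibition of growth.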

Legend:
Test in all cases: inhibition of tumour cell growth, NCI panel, 48 h
SW-620 colon = system: SW-620 colon
MDA-MB-231 breast = system: MDA-MB-231 breast
PC-3 prostate = system: PC-3 prostate
ACHN renal = system: ACHN renal
MDA-N = system: MDA-N
LOX IMVI melanoma = system: LOX IMVI melanoma
U251 CNS = system: U251 CNS
RXF 393 renal = system: RXF 393 renal
HL-60(TB) leukemia = system: HL-60(TB) leukemia
EKVX NSCLC = system: EKVX NSCLC
CAKI-1 renal = system: CAKI-1 renal
SK-MEL-2 melanoma = system: SK-MEL-2 melanoma
COLO 205 colon = system: COLO 205 colon
A498 renal = system: A498 renal
SF-268 CNS = system: SF-268 CNS
NCI/ADR-RES ovarian = system: NCI/ADR-RES ovarian
NCI-H226 lung = system: NCI-H226 lung
SF-539 CNS = system: SF-539 CNS
UACC-257 melanoma = system: UACC-257 melanoma
SK-MEL-28 melanoma = system: SK-MEL-28 melanoma
MALME-3M melanoma = system: MALME-3M melanoma
MDA-MB-435 = system: MDA-MB-435
UO-31 renal = system: UO-31 renal
SNB-19 CNS = system: SNB-19 CNS
SN12C renal = system: SN12C renal
T-47D breast = system: T-47D breast
HOP-92 NSCLC = system: HOP-92 NSCLC
HCT-116 colon = system: HCT-116 colon
CCRF-CEM leukemia = system: CCRF-CEM leukemia
OVCAR-8 ovarian = system: OVCAR-8 ovarian
HCT-15 colon = system: HCT-15 colon
BT-549 breast = system: BT-549 breast
SF-295 CNS = system: SF-295 CNS
OVCAR-3 ovarian = system: OVCAR-3 ovarian
SK-OV-3 ovarian = system: SK-OV-3 ovarian
SK-MEL-5 melanoma = system: SK-MEL-5 melanoma
NCI-H460 lung = system: NCI-H460 lung
KM12 colon = system: KM12 colon
OVCAR-4 ovarian = system: OVCAR-4 ovarian
UACC-62 melanoma = system: UACC-62 melanoma
M14 melanoma = system: M14 melanoma
K-562 leukemia = system: K-562 leukemia
HCC-2998 colon = system: HCC-2998 colon
RPMI-8226 leukemia = system: RPMI-8226 leukemia
NCI-H23 lung = system: NCI-H23 lung
HT29 colon = system: HT29 colon
MOLT-4 leukemia = system: MOLT-4 leukemia
DU-145 prostate = system: DU-145 prostate
HS 578T breast = system: HS 578T breast
NCI-H522 lung = system: NCI-H522 lung
HOP-62 NSCLC = system: HOP-62 NSCLC
786-0 renal = system: 786-0 renal
TK-10 renal = system: TK-10 renal
SNB-75 CNS = system: SNB-75 CNS
A549 NSCLC = system: A549 NSCLC
MCF7 breast = system: MCF7 breast
IGROV1 ovarian = system: IGROV1 ovarian
OVCAR-5 ovarian = system: OVCAR-5 ovarian
SR leukemia = system: SR leukemia

O=c1ccc(=O)n(-c2ccccc2)[nH]1 gave a TGI (SW-620 colon) of over 100 µM, a TGI (MDA-MB-231 breast) of over 100 µM and a TGI (PC-3 prostate) of over 100 µM. It also gave a TGI (ACHN renal) of over 100 µM, a TGI (MDA-N) of over 100 µM and a TGI (LOX IMVI melanoma) of over 100 µM. The TGI (U251 CNS) was over 100 µM, the TGI (RXF 393 renal) was over 100 µM and the TGI (HL-60(TB) leukemia) was over 100 µM. For the same compound, the TGI (EKVX NSCLC) was over 100 µM, the TGI (CAKI-1 renal) was over 100 µM and the TGI (SK-MEL-2 melanoma) was over 100 µM. It also gave a TGI (COLO 205 colon) of over 100 µM, a TGI (A498 renal) of over 100 µM and a TGI (SF-268 CNS) of over 100 µM. For the same compound, the TGI (NCI/ADR-RES ovarian) was over 100 µM, the TGI (NCI-H226 lung) was over 100 µM and the TGI (SF-539 CNS) was over 100 µM. For the same compound, the TGI (UACC-257 melanoma) was over 100 µM, the TGI (SK-MEL-28 melanoma) was over 100 µM and the TGI (MALME-3M melanoma) was over 100 µM. For the same compound, the TGI (MDA-MB-435) was over 100 µM, the TGI (UO-31 renal) was over 100 µM and the TGI (SNB-19 CNS) was over 100 µM. For the same compound, the TGI (SN12C renal) was over 100 µM, the TGI (T-47D breast) was over 100 µM and the TGI (HOP-92 NSCLC) was over 100 µM. For the same compound, the TGI (HCT-116 colon) was over 100 µM, the TGI (CCRF-CEM leukemia) was over 100 µM and the TGI (OVCAR-8 ovarian) was over 100 µM. It also gave a TGI (HCT-15 colon) of over 100 µM, a TGI (BT-549 breast) of over 100 µM and a TGI (SF-295 CNS) of over 100 µM. It also gave a TGI (OVCAR-3 ovarian) of over 100 µM, a TGI (SK-OV-3 ovarian) of over 100 µM and a TGI (SK-MEL-5 melanoma) of over 100 µM. It also gave a TGI (NCI-H460 lung) of over 100 µM, a TGI (KM12 colon) of over 100 µM and a TGI (OVCAR-4 ovarian) of over 100 µM. The TGI (UACC-62 melanoma) was over 100 µM, the TGI (M14 melanoma) was over 100 µM and the TGI (K-562 leukemia) was over 100 µM. For the same compound, the TGI (HCC-2998 colon) was over 100 µM, the TGI (RPMI-8226 leukemia) was over 100 µM and the TGI (NCI-H23 lung) was over 100 µM. It also gave a TGI (HT29 colon) of over 100 µM, a TGI (MOLT-4 leukemia) of over 100 µM and a TGI (DU-145 prostate) of over 100 µM. It also gave a TGI (HS 578T breast) of over 100 µM, a TGI (NCI-H522 lung) of over 100 µM and a TGI (HOP-62 NSCLC) of over 100 µM. The TGI (786-0 renal) was over 100 µM, the TGI (TK-10 renal) was over 100 µM and the TGI (SNB-75 CNS) was over 100 µM. The TGI (A549 NSCLC) was over 100 µM, the TGI (MCF7 breast) was over 100 µM and the TGI (IGROV1 ovarian) was over 100 µM. The TGI (OVCAR-5 ovarian) was over 100 µM.

For CCOC(=O)c1sc2c(c1O)c(=O)n(-c1ccccc1)c(=S)n2-c1ccccc1, the TGI (SW-620 colon) was over 100 µM, the TGI (MDA-MB-231 breast) was over 100 µM and the TGI (ACHN renal) was over 100 µM. For the same compound, the TGI (MDA-N) was over 100 µM, the TGI (LOX IMVI melanoma) was over 100 µM and the TGI (U251 CNS) was over 100 µM. For the same compound, the TGI (RXF 393 renal) was over 100 µM, the TGI (HL-60(TB) leukemia) was over 100 µM and the TGI (SK-MEL-2 melanoma) was over 100 µM. The TGI (COLO 205 colon) was over 100 µM, the TGI (SF-268 CNS) was over 100 µM and the TGI (SR leukemia) was 46.9 µM. The TGI (NCI-H226 lung) was over 100 µM, the TGI (UACC-257 melanoma) was over 100 µM and the TGI (SK-MEL-28 melanoma) was over 100 µM. For the same compound, the TGI (MALME-3M melanoma) was over 100 µM, the TGI (MDA-MB-435) was over 100 µM and the TGI (UO-31 renal) was over 100 µM. For the same compound, the TGI (SNB-19 CNS) was over 100 µM, the TGI (SN12C renal) was over 100 µM and the TGI (T-47D breast) was over 100 µM. It also gave a TGI (HOP-92 NSCLC) of over 100 µM, a TGI (CCRF-CEM leukemia) of over 100 µM and a TGI (OVCAR-8 ovarian) of over 100 µM. It also gave a TGI (HCT-15 colon) of over 100 µM, a TGI (BT-549 breast) of over 100 µM and a TGI (SF-295 CNS) of over 100 µM. The TGI (OVCAR-3 ovarian) was over 100 µM, the TGI (SK-MEL-5 melanoma) was over 100 µM and the TGI (NCI-H460 lung) was over 100 µM. For the same compound, the TGI (KM12 colon) was over 100 µM, the TGI (OVCAR-4 ovarian) was over 100 µM and the TGI (UACC-62 melanoma) was over 100 µM. For the same compound, the TGI (M14 melanoma) was over 100 µM, the TGI (K-562 leukemia) was over 100 µM and the TGI (HCC-2998 colon) was over 100 µM. It also gave a TGI (RPMI-8226 leukemia) of over 100 µM, a TGI (NCI-H23 lung) of over 100 µM and a TGI (HT29 colon) of over 100 µM. The TGI (DU-145 prostate) was over 100 µM, the TGI (HS 578T breast) was over 100 µM and the TGI (NCI-H522 lung) was over 100 µM. The TGI (786-0 renal) was over 100 µM, the TGI (TK-10 renal) was over 100 µM and the TGI (SNB-75 CNS) was over 100 µM. For the same compound, the TGI (A549 NSCLC) was over 100 µM, the TGI (MCF7 breast) was over 100 µM and the TGI (IGROV1 ovarian) was over 100 µM. The TGI (OVCAR-5 ovarian) was over 100 µM.

In the case of CC(C)CCC[C@@H](C)C1CCC2[C@@H]3CCC4C[C@@H](NS(C)(=O)=O)CC[C@]4(C)C3CC[C@@]21C (stereo partly specified), the TGI (SW-620 colon) is reported as over 100 µM, the TGI (MDA-MB-231 breast) is reported as over 100 µM and the TGI (PC-3 prostate) is reported as over 100 µM. For the same compound, the TGI (MDA-N) was over 100 µM, the TGI (LOX IMVI melanoma) was over 100 µM and the TGI (U251 CNS) was over 100 µM. It also gave a TGI (RXF 393 renal) of over 100 µM, a TGI (HL-60(TB) leukemia) of over 100 µM and a TGI (EKVX NSCLC) of over 100 µM. The TGI (CAKI-1 renal) was over 100 µM, the TGI (SK-MEL-2 melanoma) was over 100 µM and the TGI (COLO 205 colon) was over 100 µM. For the same compound, the TGI (SF-268 CNS) was over 100 µM, the TGI (NCI/ADR-RES ovarian) was over 100 µM and the TGI (SR leukemia) was over 100 µM. For the same compound, the TGI (NCI-H226 lung) was over 100 µM, the TGI (SF-539 CNS) was over 100 µM and the TGI (UACC-257 melanoma) was over 100 µM. The TGI (SK-MEL-28 melanoma) was over 100 µM, the TGI (MALME-3M melanoma) was over 100 µM and the TGI (MDA-MB-435) was over 100 µM. The TGI (UO-31 renal) was over 100 µM, the TGI (SNB-19 CNS) was over 100 µM and the TGI (SN12C renal) was over 100 µM. The TGI (T-47D breast) was over 100 µM, the TGI (HCT-116 colon) was over 100 µM and the TGI (CCRF-CEM leukemia) was over 100 µM. For the same compound, the TGI (OVCAR-8 ovarian) was over 100 µM, the TGI (HCT-15 colon) was over 100 µM and the TGI (BT-549 breast) was over 100 µM. For the same compound, the TGI (SF-295 CNS) was over 100 µM, the TGI (OVCAR-3 ovarian) was over 100 µM and the TGI (SK-OV-3 ovarian) was over 100 µM. The TGI (SK-MEL-5 melanoma) was over 100 µM, the TGI (NCI-H460 lung) was over 100 µM and the TGI (KM12 colon) was over 100 µM. For the same compound, the TGI (OVCAR-4 ovarian) was over 100 µM, the TGI (UACC-62 melanoma) was over 100 µM and the TGI (M14 melanoma) was over 100 µM. The TGI (K-562 leukemia) was over 100 µM, the TGI (RPMI-8226 leukemia) was over 100 µM and the TGI (NCI-H23 lung) was over 100 µM. For the same compound, the TGI (HT29 colon) was over 100 µM, the TGI (MOLT-4 leukemia) was over 100 µM and the TGI (DU-145 prostate) was over 100 µM. It also gave a TGI (HS 578T breast) of over 100 µM, a TGI (NCI-H522 lung) of over 100 µM and a TGI (HOP-62 NSCLC) of over 100 µM. For the same compound, the TGI (786-0 renal) was over 100 µM, the TGI (TK-10 renal) was over 100 µM and the TGI (SNB-75 CNS) was over 100 µM. The TGI (A549 NSCLC) was over 100 µM, the TGI (MCF7 breast) was over 100 µM and the TGI (IGROV1 ovarian) was over 100 µM.
